Here are results for 8 compounds from US9387195B2, “Methods for treating diseases using isoindoline compounds” (Celgene Corporation, priority 2011, dated 2016).

Experiment [1] has as its system IFN-α production. The experiment can be described thus: IFN-α ELISA, CpG-A stimulated human PBMCs or pDCs (Example 15). The experiment is classed as cell-based. On the procedure: (§1) The IFN-α and TNF-α levels were measured by enzyme-linked immunoabsorbant assay (ELISA) obtained from R&D System, Minneapolis, Minn., known as Human IFN-alpha ELISA Kit (PBL Interferon Source, Cat #41100-1) and Human TNF-alpha Quantikine ELISA Kit (ThermoScientific, Cat # EH3TNFA5) respectively. […] Compounds were diluted with DMSO (PBMCs) or media (pDCs) from a 4 mM stock of each compound to obtain different concentrations. Human PBMCs or pDCs were pretreated with different concentrations of compounds for an hour prior stimulation. Cells were then stimulated with 1 μM (PBMCs) or 10 μM (PDCs) CpG-A ODN 2216 for 18 hours. The samples with Compound (II) (0.25 μM, 0.5 μM and 1 μM) are labeled as Examples B1-B3; the samples with Compound (I) (0.25 μM, 0.5 μM and 1 μM) are labeled as Examples B4-B6; the samples with CC-930 (1.0 μM, 2.0 μM and 3.0 μM) are labeled as Examples B7-B9; and the samples with chloroquine (0.5 μM, 1.0 μM and 2.0 μM) are labeled as Examples B10-B12. Keratinocytes of samples (Examples B1-B12) cultured in the presence of pDCs were stimulated with CpG-A oligonucleotide. Two control experiments were done. The first control experiment (Control BB1) was done with similar procedures mentioned-above but without CpG-A stimulation and without the addition of inhibitors. The second control experiment (Control BB2) was done with similar procedures mentioned-above but without the addition of inhibitors. Supernatant was collected after 18 hours. IFN-α and TNF-α levels were assayed by ELISA according to manufacturer's instructions.

The test system of experiment [2] is TNF-α production. In words: TNF-α ELISA, CpG-A stimulated human PBMCs or pDCs (Example 15). Format: cell-based. On the procedure: as §1
On the technique in general: In an ELISA, binding on a coated surface is turned into a signal by an enzyme label.

Experiment [3] relates to keratinocyte MxA. In words: pDC-keratinocyte co-culture with CpG-A stimulation, keratinocyte MxA level (Example 16). Format: cell-based, human. To be noted: for decrease in the keratinocyte MxA level: relative to Control BB2. The procedure:
(§2) The Human pDC/HEKa Coculture involves stimulation with CpG-A oligodeoxynucleotide. CpG-A-stimulation would induce pDCs to secrete interferon-alpha (IFN-α) which in turn elicits increased expression of MxA protein from keratinocytes. HEKa were plated in 6-well plates at density of 1×10^5 cells/well and incubated overnight in a defined keratinocyte medium. The medium was removed in the next day and then 1.8×10^5 pDC cells, in defined pDC medium, were overlaid on the HEKa cells. Compound (II) was added to the medium to obtain final concentrations of 0.25 μM, 0.5 μM and 1 μM. One hour after the addition of Compound (II), CpG-A was added to each of the concentrations and then incubated overnight. Same samples from Example 15 were used here.
(§3) The cells were fixed and immunostained the co-cultures with antibodies to keratinocyte myxovirus resistance protein A (MxA) and Cytokeratin as follows using the ThermoScientific Cellomics High Content Screening (HCS) Readers using vHCS Scan Software.
(§4) Eighteen hours after the addition of Compound (II), cocultures were fixed for 30 minutes with BD fixation/permeabilization buffer, washed, and blocked with 2% normal goat serum/bovine serum albumin solution for an hour. Cocultures were then incubated overnight with primary antibodies to MxA and Cytokeratin. Cells were washed and incubated for an hour with Alexa anti-goat and anti-rabbit fluorescein (IgG1) or TRITC-conjugated (IgG) secondary antibodies. […] Cocultures were washed and incubated in 1X phosphate buffered saline (PBS) and plates scanned using Thermo Scientific ArrayScan VTI HCS Reader, a modular High Content Screening instrument designed for high-capacity automated fluorescence imaging and quantitative analysis of fixed and live cells. The output was analyzed using Cellomics Compartmental Analysis algorithm to quantitate fluorescence levels in the green and red channels. […] Mean fluorescence intensity levels of MxA and Cytokeratin of the samples were expressed as percentage of mean fluorescence intensity levels of MxA and cytokeratin of Control BB2. […]

In experiment [4] the test system is keratinocyte cytokeratin. The experiment can be described thus: pDC-keratinocyte co-culture with CpG-A stimulation, cytokeratin level (Example 16). The following applies: relative to Control BB2. The experiment is classed as cell-based, human. The procedure: as §2, §3, §4
The test system of experiment [5] is IFN-α production. In words: IFN-α ELISA in CpG-A stimulated hPBMC (Example 18). The experiment is classed as cell-based, human. To be noted: 1 μM CpG-A, 18 hours. On the procedure:
Human PBMCs (1×10^5 cells) were plated in 96-well plates (PBMCs) in RPMI media containing 10% FBS. Compounds were diluted with DMSO from a 4 mM stock of each compound to obtain different concentrations. Human PBMCs were pretreated with different concentrations of compounds for an hour prior stimulation. Cells were then stimulated with CpG-A ODN 2216 (1 μM) for 18 hours. […] The samples (Control E1 and Examples E2-E20) contained 1 μM CpG-A. Supernatant was collected after 18 hours. The IFN-α levels of samples were measured by the IFN-α ELISA obtained from PBL Interferon Source, Piscataway, N.J., known as Human IFN-alpha ELISA Kit. IFN-α levels of samples were assayed by the ELISA according to manufacturer's instructions. Inhibition of the production of IFN-α by individual compounds were determined in the CpG-A stimulated hPBMC cultures.

The subject of experiment [6] is keratinocyte MxA. The experiment can be described thus: Human pDC/HEKa coculture with CpG-A stimulation, keratinocyte MxA level (Example 14). The experiment is classed as cell-based. The following applies: relative to CpG-A stimulated Example A1. On the procedure:
as §2, with “CpG-A oligodeoxynucleotide 2216. The CpG-A stimulation” for “CpG-A oligodeoxynucleotide. CpG-A-stimulation”, “0.5 μM, 1” for “0.5”, “and 2” for “and 1”, “of these” for “of the”, “overnight.” for “overnight. Same samples from Example 15 were used here.”
as §3
Eighteen hours after the addition of Compound (II), cocultures were fixed for 30 minutes with BD fixation/permeabilization buffer, washed, and blocked with 2% normal goat serum/bovine serum albumin solution for an hour. Cocultures were then incubated overnight with primary antibodies to MxA and Cytokeratin. Cells were washed and incubated for an hour with Alexa anti-goat and anti-rabbit fluorescein (IgG1) or TRITC-conjugated (IgG) secondary antibodies. Nuclei were stained with DAPI or 4′,6-diamidino-2-phenylindole. Cocultures were washed and incubated in 1X phosphate buffered saline (PBS) and plates scanned using Thermo Scientific ArrayScan VTI HCS Reader, a modular High Content Screening instrument designed for high-capacity automated fluorescence imaging and quantitative analysis of fixed and live cells. The output was analyzed using Cellomics Compartmental Analysis algorithm to quantitate fluorescence levels in the green and red channels. Data was exported to Microsoft Excel worksheets. Mean fluorescence intensity levels of MxA and Cytokeratin of the samples were expressed as percentage of mean fluorescence intensity levels of MxA and cytokeratin of Example A1. Histograms were generated and statistical analysis was performed using GraphPad Prism v4.0 (GraphPad Software, Inc., San Diego, Calif.).
FIGS. 1-2 show the levels of keratinocyte MxA and cytokeratin of the samples averaged from four independent experiments relative to the keratinocyte MxA and cytokeratin levels of Example A1 with pDCs derived from separate donors. […]

Experiment [7] has as its system cytokeratin. The experiment can be described thus: Human pDC/HEKa coculture with CpG-A stimulation, cytokeratin level (Example 14). To be noted: 0.25-2 μM; relative to Example A1. Format: cell-based. On the procedure: The Human pDC/HEKa Coculture involves stimulation with CpG-A oligodeoxynucleotide 2216. The CpG-A stimulation would induce pDCs to secrete interferon-alpha (IFN-α) which in turn elicits increased expression of MxA protein from keratinocytes. HEKa were plated in 6-well plates at density of 1×10^5 cells/well and incubated overnight in a defined keratinocyte medium. The medium was removed in the next day and then 1.8×10^5 pDC cells, in defined pDC medium, were overlaid on the HEKa cells. Compound (II) was added to the medium to obtain final concentrations of 0.25 μM, 0.5 μM, 1 μM and 2 μM. […]
as §3
Eighteen hours after the addition of Compound (II), cocultures were fixed for 30 minutes with BD fixation/permeabilization buffer, washed, and blocked with 2% normal goat serum/bovine serum albumin solution for an hour. […] Cocultures were washed and incubated in 1X phosphate buffered saline (PBS) and plates scanned using Thermo Scientific ArrayScan VTI HCS Reader, a modular High Content Screening instrument designed for high-capacity automated fluorescence imaging and quantitative analysis of fixed and live cells. […]

The mark [8] stands for this setting: 0.25, 0.5 and 1 μM, relative to CpG-A stimulation (Control BB2), P<0.0001.
The mark [9] stands for this setting: 0.25, 0.5 and 1 μM, relative to CpG-A stimulation (Control BB2).
Where [10] appears, read: 1.0, 2.0 and 3.0 μM (Examples B7-B9), relative to Control BB2.
Setting [11] is: Homo sapiens, PBMC, read-out: inhibition of the production of IFN-α.

Take `CCOc1cc(C(CS(C)(=O)=O)N2C(=O)c3cccc(NC(C)=O)c3C2=O)ccc1OC` (single isomer, unassigned; (+)) [Compound (I), (+)-2-[1-(3-ethoxy-4-methoxyphenyl)-2-methylsulfonylethyl]-4-acetylaminoisoindoline-1,3-dione]: the “inhibition of the production of IFN-α” value in experiment [1] (setting [8]) is “inhibited”; in experiment [5] (0.5 μM, versus Control E1), “significant inhibition”; in experiment [5] (5 μM, versus Control E1), “significant inhibition”. The “inhibition of the production of TNF-α” value in experiment [2] (setting [9]) was “inhibited”. Further, the “ability to inhibit the production of the keratinocyte MxA, among the compounds tested” value in experiment [3] (0.25, 0.5 and 1 μM (Examples B4-B6)) is “greatest ability to inhibit”. Also, the “effect on the keratinocyte cytokeratin” value in experiment [4] was “no significant effect”.
Take `O[C@H]1CC[C@H](Nc2ncc3nc(Nc4c(F)cc(F)cc4F)n([C@H]4CCOC4)c3n2)CC1` [CC-930, reference compound]: the “inhibition of the production of IFN-α” value is recorded as “approximately 25%” in experiment [1] (setting [10]) and “inhibited” in experiment [5] (10 μM, versus Control E1). Moreover, in experiment [2] (setting [10]), the “inhibition of the production of TNF-α” value is “approximately 25%”. For the same compound, the “decrease in the keratinocyte MxA level” value in experiment [3] (1 μM, P<0.05) was 32%. In experiment [4], the “effect on the keratinocyte cytokeratin” value is reported as “no significant effect”.
In general, inhibition refers to the drop in the measured response relative to a control, in per cent. Regarding `CCN(CC)CCCC(C)Nc1ccnc2cc(Cl)ccc12` (stereo not drawn) [Chloroquine, chloroquine], in experiment [1] (setting [11]), the inhibition at 1 µM is around 75% and the inhibition at 2 µM was around 75%. The inhibition at 2 µM in experiment [2] (Homo sapiens, PBMC, read-out: inhibition of the production of TNF-α) was around 50%. The “inhibition of the production of IFN-α” value in experiment [5] (5 μM, versus Control E1) is “induced inhibition”.
As to `CCOc1cc([C@@H](CS(C)(=O)=O)N2Cc3cccc(NC(=O)C4CC4)c3C2=O)ccc1OC` [Compound (II), Cyclopropyl{2-[(1S)-1-(3-ethoxy-4-methoxyphenyl)-2-(methylsulfonyl)ethyl]-3-oxoisoindolin-4-yl}carboxamide], the entries for the “decrease in the keratinocyte MxA protein levels” value in experiment [6] (0.25 μM) and in experiment [6] (0.5 μM) were 19% and 39%, respectively. Also, the “decrease in keratinocyte MxA levels” value was determined as 29% in experiment [6] (1 μM) and 40% in experiment [6] (2 μM). Further, in experiment [7], the “effect on the cytokeratin levels on the keratinocytes” value was “no effect”. Besides, the “inhibition of the production of IFN-α” value in experiment [1] (setting [8]) was “inhibited”; in experiment [5] (0.5 μM, versus Control E1) it was “significant inhibition”; in experiment [5] (5 μM, versus Control E1), “significant inhibition”. The “inhibition of the production of TNF-α” value in experiment [2] (setting [9]) was “inhibited”. Further, the “decrease in the keratinocyte MxA level” value in experiment [3] (0.25, 0.5 and 1 μM (Examples B1-B3)) is listed as 13-15%. Further, the “effect on the keratinocyte cytokeratin” value in experiment [4] was “no significant effect”.
On to `Nc1cccc2c1CN(C1CCC(=O)NC1=O)C2=O` (stereo not drawn) [Lenalidomide, lenalidomide], for which the “inhibition of the production of IFN-α” value in experiment [5] (10 μM, versus Control E1) was “did not affect”.
On to `CCN(CC)CCCC(C)Nc1c2ccc(Cl)cc2nc2ccc(OC)cc12` (stereo not drawn) [Quinacrine, quinacrine], for which, in experiment [5] (0.5 and 5 μM (Examples E19-E20)), the “inhibition of the production of IFN-α” value is given as “inhibited”.
Turning to `CCN(CCO)CCCC(C)Nc1ccnc2cc(Cl)ccc12` (stereo not drawn) [hydroxychloroquine], the “inhibition of the production of IFN-α” value in experiment [5] (5 μM, versus Control E1) was “induced inhibition”.
With `O=C1CCC(N2C(=O)c3ccccc3C2=O)C(=O)N1` (stereo not drawn) [thalidomide], the “inhibition of the production of IFN-α” value in experiment [5] (10 μM, versus Control E1) is listed as “did not affect”.
